Data published in patent US10174024B2, “5H-pyrido[3,2-B]indole compounds as anticancer agents” (BRISTOL-MYERS SQUIBB COMPANY, priority 2015, dated 2019).

Target: BRD4 (Homo sapiens, UniProt O60885)
Assay: Time Resolved Fluorescence Resonance Energy Transfer (TR-FRET) binding assay, FRET BRD4
Details: FRET BRD4 IC50 (nM), one of the FRET assays described (BRD4 bromodomain construct not specified)

Row | Compound | IC50
1 | [2H]C([2H])([2H])c1nnn(C)c1-c1cnc2c3ccc(C4(O)CCN(C)CC4)c(F)c3n([C@H](c3ccccc3)C3CCOCC3)c2c1 [Example 54, 4-{6-Fluoro-3-[4-(^2H3)methyl-1-methyl-1H-1,2,3-triazol-5-yl]-5-[(S)-oxan-4-yl(phenyl)methyl]-5H-pyrido[3,2-b]indol-7-yl}-1-methylpiperidin-4-ol] | < 1 nM

Same assay, conditions: one of the FRET assays described (BRD4 bromodomain construct not specified); read-out: FRET BRD4 IC50

Row | Compound | IC50
2 | [2H]C([2H])([2H])c1nnn(C)c1-c1cnc2c3ccc(N4CCC(S(C)(=O)=O)CC4)cc3n(C(c3ncccc3F)C3CCOCC3)c2c1 (stereo not shown) [Example 70, 3-Fluoro-2-{[7-(4-methanesulfonylpiperidin-1-yl)-3-[4-(^2H3)methyl-1-methyl-1H-1,2,3-triazol-5-yl]-5H-pyrido[3,2-b]indol-5-yl](oxan-4-yl)methyl}pyridine] | < 1 nM
3 | CC(=O)N1CCC(c2ccc3c(c2)c2ncc(-c4c(C)noc4C)cc2n3[C@H](c2ccccc2)C2CCOCC2)CC1 [Example 7, 1-{4-[3-(Dimethyl-1,2-oxazol-4-yl)-5-[(S)-oxan-4-yl(phenyl)methyl]-5H-pyrido[3,2-b]indol-8-yl]piperidin-1-yl}ethan-1-one] | < 1 nM
4 | [2H]C([2H])([2H])n1nnc(OC)c1-c1ccc2c3ncc(-c4c(OC)nnn4C([2H])([2H])[2H])cc3n([C@H](c3ccccc3)C3CCOCC3)c2c1 [Example 30, 4-Methoxy-5-{7-[4-methoxy-1-(^2H3)methyl-1H-1,2,3-triazol-5-yl]-5-[(S)-oxan-4-yl(phenyl)-methyl]-5H-pyrido[3,2-b]indol-3-yl}-1-(^2H3)methyl-1H-1,2,3-triazole] | < 5 nM
5 | [2H]C([2H])([2H])c1nnn(C)c1-c1cnc2c3c(N4CCCS4(=O)=O)ccc(S(C)(=O)=O)c3n(C(c3ncccc3F)C3CCOCC3)c2c1 (stereo not shown) [Example 36, 2-{5-[(3-Fluoropyridin-2-yl)(oxan-4-yl)methyl]-6-methanesulfonyl-3-[4-(^2H3)methyl-1-methyl-1H-1,2,3-triazol-5-yl]-5H-pyrido[3,2-b]indol-9-yl}-1λ^6,2-thiazolidine-1,1-dione] | < 1500 nM
6 | [2H]C([2H])([2H])c1nnn(C)c1-c1cnc2c3cc(N4CCS(=O)(=O)[C@H](C)C4)ccc3n([C@H](c3ccccc3F)C3CCOCC3)c2c1 [Example 51, (2R)-4-{5-[(S)-(2-Fluorophenyl)(oxan-4-yl)methyl]-3-[4-(^2Ha)methyl-1-methyl-1H-1,2,3-triazol-5-yl]-5H-pyrido[3,2-b]indol-8-yl}-2-methyl-1λ^6,4-thiomorpholine-1,1-dione] | < 1 nM
7 | [2H]C([2H])([2H])c1nnn(C)c1-c1cnc2c3ccc(C4(O)CCOC4)c(F)c3n([C@H](c3ccccc3)C3CCOCC3)c2c1 (stereo partly drawn) [Example 63, 3-{6-Fluoro-3-[4-(^2H3)methyl-1-methyl-1H-1,2,3-triazol-5-yl]-5-[(S)-oxan-4-yl(phenyl)methyl]-5H-pyrido[3,2-b]indol-7-yl}oxolan-3-ol] | < 1 nM
8 | Cc1nnn(C)c1-c1cnc2c3ccc(N4CCC(F)(F)CC4)cc3n(C(c3ccccc3)C3CCC(F)(F)CC3)c2c1 (single isomer, unassigned) [Example 75, 1-{5-[(4,4-Difluorocyclohexyl)(phenyl)methyl]-3-(dimethyl-1H-1,2,3-triazol-5-yl)-5H-pyrido[3,2-b]indol-7-yl}-4,4-difluoropiperidine] | < 5 nM
9 | Cc1nnn(C)c1-c1cnc2c3ccc(N4CCC(F)(F)CC4)cc3n([C@H](c3ccccc3)C3CCOCC3)c2c1 [Example 71, 1-[3-(Dimethyl-1H-1,2,3-triazol-5-yl)-5-[(S)-oxan-4-yl(phenyl)methyl]-5H-pyrido[3,2-b]indol-7-yl]-4,4-difluoropiperidine] | < 1 nM
10 | Cc1nnn(C)c1-c1cnc2c3ccc(-c4nnn[nH]4)cc3n([C@H](c3ccccc3)C3CCOCC3)c2c1 [Example 11, 5-[3-(Dimethyl-1H-1,2,3-triazol-5-yl)-5-[(S)-oxan-4-yl(phenyl)methyl]-5H-pyrido[3,2-b]indol-7-yl]-1H-1,2,3,4-tetrazole] | < 1 nM
11 | [2H]C([2H])([2H])c1nnn(C)c1-c1cnc2c3ccc(N4CCS(=O)(=O)CC4)cc3n([C@H](c3ccccc3)C3CCOCC3)c2c1 [Example 45, 4-{3-[4-(^2H3)Methyl-1-methyl-1H-1,2,3-triazol-5-yl]-5-[(S)-oxan-4-yl(phenyl)methyl]-5H-pyrido[3,2-b]indol-7-yl}-1λ^6-thiomorpholine-1,1-dione] | < 5 nM
12 | [2H]C([2H])([2H])c1nnn(C)c1-c1cnc2c3ccc(N4CCCS4(=O)=O)c(F)c3n([C@H](c3ccccc3)C3CCOCC3)c2c1 [Example 58, 2-{6-Fluoro-3-[4-(^2H3)methyl-1-methyl-1H-1,2,3-triazol-5-yl]-5-[(S)-oxan-4-yl(phenyl)methyl]-5H-pyrido[3,2-b]indol-7-yl}-1λ^6,2-thiazolidine-1,1-dione] | < 1 nM
13 | [2H]C([2H])([2H])c1nnn(C)c1-c1cnc2c3c(N4CCC(F)(F)CC4)ccc(S(C)(=O)=O)c3n(C(c3ccccc3)C3CCC(F)(F)CC3)c2c1 (stereo not shown) [Example 74, 1-{5-[(4,4-Difluorocyclohexyl)(phenyl)methyl]-6-methanesulfonyl-3-[4-(^2H3)methyl-1-methyl-1H-1,2,3-triazol-5-yl]-5H-pyrido[3,2-b]indol-9-yl}-4,4-difluoropiperidine] | < 1500 nM
14 | [2H]C([2H])([2H])Oc1nnn(C)c1-c1ccc2c3ncc(-c4c(OC([2H])([2H])[2H])nnn4C)cc3n([C@H](c3ccccc3)C3CCOCC3)c2c1 [Example 29, 4-(^2H3)Methoxy-5-{7-[4-(^2H)methoxy-1-methyl-1H-1,2,3-triazol-5-yl]-5-[(S)-oxan-4-yl-(phenyl)methyl]-5H-pyrido[3,2-b]indol-3-yl}-1-methyl-1H-1,2,3-triazole] | < 5 nM
15 | Cc1nnn(C)c1-c1cnc2c3ccc(N4CCN(C(=O)N(C)C)CC4)cc3n([C@H](c3ccccc3)C3CCOCC3)c2c1 [Example 49, 4-[3-(Dimethyl-1H-1,2,3-triazol-5-yl)-5-[(S)-oxan-4-yl(phenyl)methyl]-5H-pyrido[3,2-b]indol-7-yl]-N,N-dimethylpiperazine-1-carboxamide] | < 5 nM
16 | [2H]C([2H])([2H])c1nnn(C)c1-c1cnc2c3c(N4CCCS4(=O)=O)ccc(S(C)(=O)=O)c3n([C@]([2H])(c3ccccc3)C3CCOCC3)c2c1 [Example 38, 2-{6-Methanesulfonyl-3-[4-(^2H3)methyl-1-methyl-1H-1,2,3-triazol-5-yl]-5-[(S)-oxan-4-yl(phenyl)(^2H)methyl]-5H-pyrido[3,2-b]indol-9-yl}-1λ^6,2-thiazolidine-1,1-dione] | < 5 nM
17 | Cc1nnn(C)c1-c1cnc2c3cc(N4C[C@@H](C)O[C@@H](C)C4)ccc3n(C(c3ccccc3)C3CCOCC3)c2c1 (stereo in doubt) [Example 3, (2R,6S)-4-[3-(Dimethyl-1H-1,2,3-triazol-5-yl)-5-[(R)-oxan-4-yl(phenyl)methyl]-5H-pyrido[3,2-b]indol-8-yl]-2,6-dimethylmorpholine] | < 5 nM
18 | Cc1n[nH]c(C)c1-c1ccc2c3ncc(-c4c(C)nnn4C)cc3n([C@H](c3ccccc3)C3CCOCC3)c2c1 [Example 17, 5-[7-(3,5-Dimethyl-1H-pyrazol-4-yl)-5-[(S)-oxan-4-yl(phenyl)methyl]-5H-pyrido[3,2-b]indol-3-yl]-1,4-dimethyl-1H-1,2,3-triazole] | < 1 nM
19 | Cc1nnn(C)c1-c1cnc2c3cc(N4CCNCC4)ccc3n([C@H](c3ccccc3)C3CCOCC3)c2c1 [Example 13, 1-[3-(Dimethyl-1H-1,2,3-triazol-5-yl)-5-[(S)-oxan-4-yl(phenyl)methyl]-5H-pyrido[3,2-b]indol-8-yl]piperazine] | < 5 nM
20 | [2H]C([2H])([2H])c1nnn(C)c1-c1cnc2c3ccc(C4(C)COC(=O)N4)c(F)c3n([C@H](c3ccccc3)C3CCOCC3)c2c1 (stereo partly drawn) [Example 55, 4-{6-Fluoro-3-[4-(^2H3)methyl-1-methyl-1H-1,2,3-triazol-5-yl]-5-[(S)-oxan-4-yl(phenyl)methyl]-5H-pyrido[3,2-b]indol-7-yl}-4-methyl-1,3-oxazolidin-2-one] | < 1 nM
21 | [2H]C([2H])([2H])c1nnn(C)c1-c1cnc2c3cc(N4CCS(=O)(=O)CC4)ccc3n([C@H](c3ccc(F)cc3)C3CCOCC3)c2c1 [Example 39, 4-{5-[(S)-(4-Fluorophenyl)(oxan-4-yl)methyl]-3-[4-(^2H3)methyl-1-methyl-1H-1,2,3-triazol-5-yl]-5H-pyrido[3,2-b]indol-8-yl}-1λ^6-thiomorpholine-1,1-dione] | < 5 nM
22 | Cc1nnn(C)c1-c1cnc2c3ccc(N4CCN(S(=O)(=O)N(C)C)CC4)cc3n([C@H](c3ccccc3)C3CCOCC3)c2c1 [Example 50, 4-[3-(Dimethyl-1H-1,2,3-triazol-5-yl)-5-[(S)-oxan-4-yl(phenyl)methyl]-5H-pyrido[3,2-b]indol-7-yl]-N,N-dimethylpiperazine-1-sulfonamide] | < 5 nM
23 | COc1nnn(C)c1-c1ccc2c3ncc(-c4c(OC)nnn4C)cc3n([C@H](c3ccccc3)C3CCOCC3)c2c1 [Example 32, 4-Methoxy-5-[7-(4-methoxy-1-methyl-1H-1,2,3-triazol-5-yl)-5-[(S)-oxan-4-yl(phenyl)methyl]-5H-pyrido[3,2-b]indol-3-yl]-1-methyl-1H-1,2,3-triazole] | < 1 nM
24 | [2H]C([2H])([2H])c1nnn(C)c1-c1cnc2c3c(N4CCCS4(=O)=O)ccc(S(C)(=O)=O)c3n([C@]([2H])(c3ccccc3F)C3CCOCC3)c2c1 [Example 37, 2-{5-[(S)-(2-Fluorophenyl)(oxan-4-yl)(^2H)methyl]-6-methanesulfonyl-3-[4-(^2H3)methyl-1-methyl-1H-1,2,3-triazol-5-yl]-5H-pyrido[3,2-b]indol-9-yl}-1λ^6,2-thiazolidine-1,1-dione] | < 5 nM
25 | [2H]C([2H])([2H])c1nnn(C)c1-c1cnc2c3ccc(N4CCNC4=O)c(F)c3n([C@H](c3ccccc3)C3CCOCC3)c2c1 [Example 59, 1-{6-Fluoro-3-[4-(^2H3)methyl-1-methyl-1H-1,2,3-triazol-5-yl]-5-[(S)-oxan-4-yl(phenyl)methyl]-5H-pyrido[3,2-b]indol-7-yl}imidazolidin-2-one] | < 5 nM
